Results as given in patent US10035771B2 (priority 2013, dated 2018).

Tests used:
BoNT/F-LC = BoNT/F-LC (Clostridium botulinum, UniProt A7GBG3); assay: biochemical; details: for inhibition at 100 µg/mL: read-out: Inhibition rate %
[1] = target: type E botulinum toxin light chain (BoNT/E-LC) (Clostridium botulinum, UniProt Q00496); assay: biochemical; details: for inhibition at 100 µg/mL: read-out: Inhibition rate %
[2] = target: tetanus toxin light chain (TeNt-LC) (Clostridium tetani, UniProt P04958); assay: biochemical; details: for inhibition at 200 µg/mL: read-out: Inhibition rate %
[3] = target: type B botulinum toxin light chain (BoNT/B-LC) (Clostridium botulinum, UniProt P10844); assay: biochemical; details: for inhibition at 100 µg/mL: read-out: Inhibition rate %
[4] = target: type A botulinum toxin light chain (BoNT/A-LC) (Clostridium botulinum, UniProt P0DPI1); assay: biochemical; details: for inhibition at 100 µg/mL: read-out: Inhibition rate %
[5] = target: light chain of type A botulinum toxin (Clostridium botulinum, UniProt P0DPI1); details: read-out: Ki value; cited from earlier work
[6] = target: type B botulinum toxin (BoNT/B) (Clostridium botulinum, UniProt P10844); parameters: species or system Balb/c mice; details: mouse, in vivo, ip
[7] = target: type A botulinum toxin (BoNT/A) (Clostridium botulinum, UniProt P0DPI1); parameters: species or system Balb/c mice; details: mouse, in vivo, ip
Chain of type A botulinum toxin (BoNT/A) (P0DPI1 2-448 limits assumed): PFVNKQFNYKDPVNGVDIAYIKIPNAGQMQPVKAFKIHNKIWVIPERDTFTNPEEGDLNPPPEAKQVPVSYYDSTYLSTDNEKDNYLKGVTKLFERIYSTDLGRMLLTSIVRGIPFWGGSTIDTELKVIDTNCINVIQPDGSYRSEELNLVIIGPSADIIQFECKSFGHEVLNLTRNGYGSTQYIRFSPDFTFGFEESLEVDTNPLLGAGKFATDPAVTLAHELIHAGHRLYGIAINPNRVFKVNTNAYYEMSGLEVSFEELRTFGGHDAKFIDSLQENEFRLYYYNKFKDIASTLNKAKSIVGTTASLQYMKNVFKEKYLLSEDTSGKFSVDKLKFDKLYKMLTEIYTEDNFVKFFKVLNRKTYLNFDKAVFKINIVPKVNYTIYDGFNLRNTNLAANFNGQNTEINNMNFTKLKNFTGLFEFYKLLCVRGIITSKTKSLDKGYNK
Chain of type A botulinum toxin (BoNT/A) (P0DPI1 449-1296 limits assumed): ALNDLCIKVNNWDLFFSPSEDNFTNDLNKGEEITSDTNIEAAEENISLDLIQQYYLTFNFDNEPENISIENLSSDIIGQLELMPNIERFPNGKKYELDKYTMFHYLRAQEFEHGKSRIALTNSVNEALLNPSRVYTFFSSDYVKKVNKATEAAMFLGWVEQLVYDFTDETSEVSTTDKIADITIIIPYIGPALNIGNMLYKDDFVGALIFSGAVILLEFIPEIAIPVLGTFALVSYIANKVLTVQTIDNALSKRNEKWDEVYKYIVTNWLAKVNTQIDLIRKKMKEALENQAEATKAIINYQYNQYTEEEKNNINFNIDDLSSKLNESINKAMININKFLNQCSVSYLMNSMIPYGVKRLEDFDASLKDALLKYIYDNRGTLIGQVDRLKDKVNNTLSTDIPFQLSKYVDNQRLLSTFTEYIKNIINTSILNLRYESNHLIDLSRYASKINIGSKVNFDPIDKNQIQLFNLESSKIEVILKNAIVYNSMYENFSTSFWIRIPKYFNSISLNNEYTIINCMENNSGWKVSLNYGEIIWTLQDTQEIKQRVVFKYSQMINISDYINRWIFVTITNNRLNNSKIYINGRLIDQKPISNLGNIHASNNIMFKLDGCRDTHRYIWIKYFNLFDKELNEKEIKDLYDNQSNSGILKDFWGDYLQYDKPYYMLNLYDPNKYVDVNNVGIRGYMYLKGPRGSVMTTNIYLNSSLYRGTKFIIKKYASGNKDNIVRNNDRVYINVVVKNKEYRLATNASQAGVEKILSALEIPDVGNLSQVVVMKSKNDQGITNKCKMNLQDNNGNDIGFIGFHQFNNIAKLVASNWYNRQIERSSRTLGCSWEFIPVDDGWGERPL

Chain of type A botulinum toxin light chain (BoNT/A-LC) (P0DPI1 2-448 limits assumed): as the sequence (P0DPI1 2-448 limits assumed) above
Chain of BoNT/F-LC (A7GBG3 1-436 limits assumed): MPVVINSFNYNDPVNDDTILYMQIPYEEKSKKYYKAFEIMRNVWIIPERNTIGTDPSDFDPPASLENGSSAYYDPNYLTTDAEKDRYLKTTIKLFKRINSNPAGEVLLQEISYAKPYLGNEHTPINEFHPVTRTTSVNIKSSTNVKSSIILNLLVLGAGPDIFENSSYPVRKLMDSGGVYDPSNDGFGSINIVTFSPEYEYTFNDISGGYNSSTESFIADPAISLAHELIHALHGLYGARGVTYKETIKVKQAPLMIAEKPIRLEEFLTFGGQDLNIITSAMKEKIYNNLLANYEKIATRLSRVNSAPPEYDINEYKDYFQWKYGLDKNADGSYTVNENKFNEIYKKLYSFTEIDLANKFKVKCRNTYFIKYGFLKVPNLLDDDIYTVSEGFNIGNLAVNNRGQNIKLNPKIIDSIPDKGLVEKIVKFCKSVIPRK
Chain of type B botulinum toxin (BoNT/B) (P10844 2-441 limits assumed): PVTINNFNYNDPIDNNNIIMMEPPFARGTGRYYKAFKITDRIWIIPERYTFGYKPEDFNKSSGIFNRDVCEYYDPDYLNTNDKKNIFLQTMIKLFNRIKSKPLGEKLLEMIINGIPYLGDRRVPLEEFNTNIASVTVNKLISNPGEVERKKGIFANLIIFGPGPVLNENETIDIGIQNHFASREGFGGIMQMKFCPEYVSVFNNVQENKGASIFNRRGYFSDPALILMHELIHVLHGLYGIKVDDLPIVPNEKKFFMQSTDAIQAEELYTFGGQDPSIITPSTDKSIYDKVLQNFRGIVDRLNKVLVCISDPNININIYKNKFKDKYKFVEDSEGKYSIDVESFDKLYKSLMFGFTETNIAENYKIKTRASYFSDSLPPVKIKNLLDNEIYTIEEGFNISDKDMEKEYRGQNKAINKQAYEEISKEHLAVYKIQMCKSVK
Chain of type B botulinum toxin (BoNT/B) (P10844 442-1291 limits assumed): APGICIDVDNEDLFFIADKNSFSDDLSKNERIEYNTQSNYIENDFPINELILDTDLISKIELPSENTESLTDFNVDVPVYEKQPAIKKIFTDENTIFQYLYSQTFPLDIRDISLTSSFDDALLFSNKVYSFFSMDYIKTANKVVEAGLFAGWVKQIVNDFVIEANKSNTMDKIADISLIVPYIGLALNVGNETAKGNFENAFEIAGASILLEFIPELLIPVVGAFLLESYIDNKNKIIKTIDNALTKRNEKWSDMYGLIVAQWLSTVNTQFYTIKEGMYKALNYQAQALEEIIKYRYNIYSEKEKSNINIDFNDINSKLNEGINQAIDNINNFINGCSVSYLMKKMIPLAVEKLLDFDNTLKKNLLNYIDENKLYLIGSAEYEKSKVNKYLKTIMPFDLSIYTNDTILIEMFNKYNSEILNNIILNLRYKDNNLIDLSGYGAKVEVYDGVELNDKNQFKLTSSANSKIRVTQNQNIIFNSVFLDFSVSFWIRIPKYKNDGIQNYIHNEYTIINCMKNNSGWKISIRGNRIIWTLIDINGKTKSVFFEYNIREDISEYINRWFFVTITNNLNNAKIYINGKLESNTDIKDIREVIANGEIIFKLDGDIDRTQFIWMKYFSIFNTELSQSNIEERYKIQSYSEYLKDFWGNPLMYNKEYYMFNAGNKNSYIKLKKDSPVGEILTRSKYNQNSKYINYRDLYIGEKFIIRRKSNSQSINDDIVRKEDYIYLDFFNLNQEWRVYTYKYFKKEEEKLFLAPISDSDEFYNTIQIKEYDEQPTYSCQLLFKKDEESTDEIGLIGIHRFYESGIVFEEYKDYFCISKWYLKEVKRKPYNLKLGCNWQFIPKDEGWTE
Chain of type B botulinum toxin light chain (BoNT/B-LC) (P10844 2-441 limits assumed): as the sequence (P10844 2-441 limits assumed) above
Chain of tetanus toxin light chain (TeNt-LC) (P04958 2-457 limits assumed): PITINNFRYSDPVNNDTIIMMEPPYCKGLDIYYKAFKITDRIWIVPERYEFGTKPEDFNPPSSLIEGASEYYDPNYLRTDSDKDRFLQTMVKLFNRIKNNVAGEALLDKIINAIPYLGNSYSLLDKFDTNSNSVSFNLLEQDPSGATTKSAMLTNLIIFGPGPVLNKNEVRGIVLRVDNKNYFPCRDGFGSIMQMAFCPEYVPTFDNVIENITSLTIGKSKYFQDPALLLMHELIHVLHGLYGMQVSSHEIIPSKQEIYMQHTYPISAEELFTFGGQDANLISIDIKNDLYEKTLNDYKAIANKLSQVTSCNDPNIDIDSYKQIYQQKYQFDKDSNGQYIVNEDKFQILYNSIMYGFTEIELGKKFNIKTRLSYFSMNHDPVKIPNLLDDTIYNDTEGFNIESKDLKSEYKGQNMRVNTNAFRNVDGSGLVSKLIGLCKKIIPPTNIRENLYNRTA
Chain of type E botulinum toxin light chain (BoNT/E-LC) (Q00496 2-422 limits assumed): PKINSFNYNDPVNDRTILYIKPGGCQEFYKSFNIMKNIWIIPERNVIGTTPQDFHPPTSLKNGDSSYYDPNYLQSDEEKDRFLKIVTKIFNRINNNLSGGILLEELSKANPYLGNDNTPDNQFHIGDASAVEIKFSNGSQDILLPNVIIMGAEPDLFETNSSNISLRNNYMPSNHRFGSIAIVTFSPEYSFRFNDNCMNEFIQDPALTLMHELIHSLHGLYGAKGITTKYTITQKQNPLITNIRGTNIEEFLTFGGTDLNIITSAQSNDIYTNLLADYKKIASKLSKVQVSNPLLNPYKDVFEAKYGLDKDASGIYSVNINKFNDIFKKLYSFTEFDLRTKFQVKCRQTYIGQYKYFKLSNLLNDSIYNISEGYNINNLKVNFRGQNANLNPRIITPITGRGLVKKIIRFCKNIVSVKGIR

| SMILES | inhibition at 100 µg/mL (BoNT/F-LC) [%] | inhibition at 100 µg/mL [1] [%] | inhibition at 200 µg/mL [2] [%] | inhibition at 100 µg/mL [3] [%] | inhibition at 100 µg/mL [4] [%] | % survival [6] [%] | further results |
| --- | --- | --- | --- | --- | --- | --- | --- |
| COc1ccc(Cl)c(NC(=O)CSc2ncccc2C(=O)[O-])c1.[K+] [Example 14, potassium] | 9.8 | 13.5 | 12.3 | 24.2 | 19.8 | – | – |
| COC(=O)c1ccc(O)c2nc3c(C=O)c(O)cc(O)c3nc12 [lomofungin] | – | – | – | – | – | – | Ki [5]: 6.7 ± 0.7 µM |
| O=C(CSc1ncccc1C(=O)[O-])Nc1ccccc1Cl.[K+] [Example 8, potassium] | 15.3 | 27.6 | 21.1 | 35 | 25.1 | – | – |
| COc1ccc(Cl)cc1NCC(=O)Sc1ncccc1C(=O)[O-].[Na+] [Example 1, 2-(2-(5-chloro-2-methoxyanilino)acetylthio)nicotinate sodium] | 12.2 | 7.32 | 12.8 | 27.8 | 8.4 | 40 | – |
| O=C(CSc1ncccc1C(=O)[O-])Nc1ccc(OC(F)(F)F)cc1.[K+] [Example 21, potassium] | 16.5 | 20.3 | 17.4 | 28 | 14.3 | – | – |
| O=C(CSc1ncccc1C(=O)[O-])Nc1cc(F)ccc1Cl.[K+] [Example 18, 2-(2-(5-fluoro-2-chlorophenyl)-2-acetylthio)nicotinate potassium] | 16.2 | 17.2 | 19.3 | 30.2 | 11.4 | 40 | % survival [7]: 0% |
| COc1ccc(Cl)cc1NC(=O)CSc1cc(C(=O)[O-])ccn1.[K+] [Example 15] | – | – | – | – | – | – | % survival [7]: 80% |
| O=C(CSc1ncccc1C(=O)O)Nc1cccc(OC(F)(F)F)c1 [Example 25, potassium] | 3 | 4.3 | 5.7 | 15.2 | 2.9 | – | – |
| O=C(CSc1ncccc1C(=O)[O-])Nc1ccccc1Cl.[K+] [Example 8] | – | – | – | – | – | 0 | % survival [7]: 80% |
| COc1ccc(Cl)cc1NC(=O)CSc1ncccc1C(=O)[O-].[K+] [Example 3] | – | – | – | – | – | 60 | Inhibition rate % (BoNT/F-LC): 19.2%; % survival [7]: 40%; Inhibition rate % [1]: 16.5%; Inhibition rate % [2]: 20.2%; Inhibition rate % [3]: 30.2%; Inhibition rate % [4]: 11.3% |
| O=C(CSc1ncccc1C(=O)[O-])Nc1cc(OC(F)(F)F)ccc1Br.[K+] [Example 26, potassium] | 13.1 | 12.1 | 17.1 | 30 | 27.4 | – | – |
| CCCOc1ccc(Cl)cc1NC(=O)CSc1ncccc1C(=O)O [Example 7] | 11.3 | 14 | 20 | 24.2 | 18.1 | – | – |
| O=C(CSc1ncccc1C(=O)[O-])Nc1cc(Br)ccc1Br.[K+] [Example 9, potassium] | 12.1 | 8.2 | 15.2 | 29.2 | 9.3 | – | – |
| O=C(CSc1ncccc1C(=O)[O-])Nc1cccc(Cl)c1.[K+] [Example 20] | – | – | – | – | – | 0 | – |
| O=C(CSc1ncccc1C(=O)O)Nc1ccccc1 [Example 17, 2-(anilino-2-acetylthio)nicotinic Acid] | 8.3 | 18 | 6.4 | 3.7 | 15.4 | – | – |
| O=C(CSc1ncccc1C(=O)[O-])Nc1ccc(Br)cc1.[K+] [Example 12] | – | – | – | – | – | 80 | – |
| O=C(CSc1ncccc1C(=O)[O-])Nc1cc(OC(F)(F)F)ccc1Br.[K+] [Example 26] | – | – | – | – | – | 20 | – |
| CCOc1ccccc1NC(=O)CSc1ncccc1C(=O)O [Example 5] | 5 | 6.8 | 8 | 4.3 | 2.7 | – | – |

| SMILES | inhibition at 100 µg/mL (BoNT/F-LC) [%] | inhibition at 100 µg/mL [1] [%] | inhibition at 200 µg/mL [2] [%] | inhibition at 100 µg/mL [3] [%] | inhibition at 100 µg/mL [4] [%] | % survival [6] [%] | further results |
| --- | --- | --- | --- | --- | --- | --- | --- |
| O=C(CSc1ncccc1C(=O)O)Nc1cc(F)ccc1F [Example 22, potassium] | 3.4 | 2.1 | 4.4 | 2.7 | 3.2 | – | – |
| O=C(CSc1ncccc1C(=O)[O-])Nc1ccccc1OC(F)(F)F.[K+] [Example 24] | – | – | – | – | – | 80 | – |
| O=C(CSc1ncccc1C(=O)[O-])Nc1cc(Br)ccc1Br.[K+] [Example 9] | – | – | – | – | – | 20 | – |
| O=C(CSc1ncccc1C(=O)O)Nc1ccc(F)cc1 [Example 19, potassium] | 4 | 6.8 | 2.7 | 3 | 3 | – | – |
| O=C(CSc1ncccc1C(=O)[O-])Nc1cccc(Cl)c1.[K+] [Example 20, potassium] | 17.8 | 4.2 | 22.2 | 41 | 6.8 | – | – |
| COc1ccc(Cl)c(NC(=O)CSc2ncccc2C(=O)[O-])c1.[K+] [Example 14] | – | – | – | – | – | – | % survival [7]: 20% |
| COc1ccc(OC)c(NC(=O)CSc2ncccc2C(=O)O)c1 [Example 16, potassium] | 9.8 | 5.2 | 16.2 | 20.1 | 17.9 | – | – |
| O=C(CSc1ncccc1C(=O)[O-])Nc1cc(Cl)ccc1OCc1ccccc1.[K+] [Example 23, sodium] | 35.8 | 50.7 | 30.3 | 55.7 | 78 | – | – |
| COc1ccc(Cl)cc1NC(=O)CSc1ncccc1C(=O)O [Example 2] | 13.2 | 11.6 | 12.3 | 20.5 | 12.1 | – | – |
| O=C(CSc1ncccc1C(=O)[O-])Nc1ccccc1OC(F)(F)F.[K+] [Example 24, potassium] | 11.2 | 5.6 | 13.2 | 29.3 | 8.9 | – | – |
| COc1ccc(Cl)cc1NC(=O)CSc1cc(C(=O)[O-])ccn1.[K+] [Example 15, potassium] | 7.2 | 16.3 | 23.5 | 19.4 | 3 | – | – |
| O=C(CSc1ncccc1C(=O)[O-])Nc1ccc(Br)cc1.[K+] [Example 12, potassium] | 13.2 | 12.3 | 16.4 | 29.1 | 9.4 | – | – |
| COc1cc(Cl)cc(NCC(=O)Sc2ncccc2C(=O)[O-])c1.[Na+] [Example 4, 2-(2-(3-chloro-5-methoxyanilino)acetylthio)nicotinate sodium] | 48.6 | 43.2 | 34.5 | 95.5 | 45.4 | 100 | % survival [7]: 100% |
| COc1ccc(F)cc1NC(=O)CSc1ncccc1C(=O)O [Example 13, potassium] | 16.4 | 18.3 | 14.6 | 22 | 20.3 | – | – |
| O=C(CSc1ncccc1C(=O)[O-])Nc1cc(Cl)ccc1OCc1ccccc1.[K+] [Example 23] | – | – | – | – | – | 80 | % survival [7]: 100% |
| O=C(CSc1ncccc1C(=O)[O-])Nc1ccc(OC(F)(F)F)cc1.[K+] [Example 21] | – | – | – | – | – | 40 | % survival [7]: 40% |
| CCOc1ccc(Cl)cc1NC(=O)CSc1ncccc1C(=O)O [Example 6] | 6.7 | 16.8 | 4.7 | 8.6 | 14.7 | – | – |
